Test results published in patent US20240252488A1 (KOREA RESEARCH INSTITUTE OF CHEMICAL TECHNOLOGY, priority 2020, published 2024).

Key:
FADD−/− Jurkat cells = assay: Necroptosis inhibition assay, TNF-α-induced necroptosis (CellTiter-Glo 2.0); assay type: cell-based, human; settings: TNF-α 15 ng/mL; for Necroptosis inhibition assay (Rescue %) 1 μM: compound 1 μM; for Necroptosis inhibition assay (Rescue %) 10 μM: compound 10 μM
Outline: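 FADD−/− Jurkat cells preincubated 30 min at room temperature with compound at 0.1, 1 and 10 μM final, then stimulated with TNF-α (15 ng/mL final) for 20–24 h at 37 °C, 5% CO2. Viability read as ATP luminescence; cytotoxicity and necroptosis inhibition rate calculated from luminescence values.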

MLKL [1] = biological target: T1, MLKL (Homo sapiens, UniProt Q8NB16); assay: Measurement of binding affinity with MLKL receptor (competitive binding assay, Kd); parameters: made in house; host or cells: HEK 293 cell line (T7 phage in E. coli BL21-derived host is also described)
T1 sequence (Q8NB16 1-471): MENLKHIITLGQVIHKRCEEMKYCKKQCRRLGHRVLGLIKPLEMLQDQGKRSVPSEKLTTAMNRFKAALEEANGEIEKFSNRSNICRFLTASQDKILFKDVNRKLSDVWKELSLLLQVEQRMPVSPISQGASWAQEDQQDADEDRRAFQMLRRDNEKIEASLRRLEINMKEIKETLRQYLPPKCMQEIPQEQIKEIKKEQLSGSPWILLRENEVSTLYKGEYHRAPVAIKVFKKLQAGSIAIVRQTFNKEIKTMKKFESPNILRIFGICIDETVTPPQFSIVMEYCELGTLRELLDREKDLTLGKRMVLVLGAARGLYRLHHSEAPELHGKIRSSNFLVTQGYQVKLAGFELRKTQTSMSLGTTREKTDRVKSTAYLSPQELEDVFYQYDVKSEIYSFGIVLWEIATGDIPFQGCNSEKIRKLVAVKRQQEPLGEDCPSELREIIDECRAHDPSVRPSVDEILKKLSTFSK
Outline: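 HEK 293-expressed, DNA-tagged MLKL; ligand beads blocked with biotin and SeaBlock/1% BSA/0.05% Tween 20/1 mM DTT buffer. Cpd from 111× DMSO stock, 0.9% DMSO final. Eluted kinase by qPCR → Kd.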

MLKL [2] = biological target: T1, MLKL; assay: MLKL degradation assay in HepG2 cell line (western blot); assay type: cell-based; parameters: endogenous in cells; host or cells: HepG2 or HaCaT; settings: cell line not given; for Degradation assay (Degradation %) 1 μM: compound 1 μM; for Degradation assay (Degradation %) 10 μM: compound 10 μM
Outline: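 HepG2 cells were treated 20-24 h at 37 °C with compound at 1 or 10 μM final. RIPA lysates were normalized by BCA, and 10-15 μg protein per lane was resolved by SDS-PAGE. MLKL was detected by western blot with chemiluminescence.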

| SMILES | Kd (MLKL [1]) [nM] | Degradation assay (Degradation %) 1 μM (MLKL [2]) [%] | Degradation assay (Degradation %) 10 μM (MLKL [2]) [%] | Necroptosis inhibition assay (Rescue %) 1 μM (FADD−/− Jurkat cells) [%] | Necroptosis inhibition assay (Rescue %) 10 μM (FADD−/− Jurkat cells) [%] | Necroptosis inhibition assay (Rescue %) 1 μM (FADD−/− Jurkat cells; FADD−/− Jurkat cells) [%] | Necroptosis inhibition assay (Rescue %) 10 μM (FADD−/− Jurkat cells; FADD−/− Jurkat cells) [%] |
| --- | --- | --- | --- | --- | --- | --- | --- |
| Nc1ncc(-c2cnn(C3CCN(CCC4CCN(C(=O)COc5ccc6c(c5)C(=O)N(C5CCC(=O)NC5=O)C6=O)CC4)CC3)c2)cc1C(=O)OC(C(=O)Nc1ccc(F)cc1)c1ccccc1 (centres unmarked) [TDH-300, 2-((4-fluorophenyl)amino)-2-oxo-1-phenylethyl 2-amino-5-(1-(1-(2-(1-(2-((2-(2,6-dioxopiperidin-3-yl)-1,3-dioxoisoindolin-5-yl)oxy)acetyl)piperidin-4-yl)ethyl)piperidin-4-yl)-1H-pyrazol-4-yl)nicotinate] | 9 | 54.31 | 69.42 | 55.98 | 38.09 | – | – |
| Nc1ncc(-c2cnn(C3CCN(CCCN4CCN(C(=O)C5CCN(c6ccc7c(c6)C(=O)N(C6CCC(=O)NC6=O)C7=O)CC5)CC4)CC3)c2)nc1C(=O)OC(C(=O)Nc1ccc(F)cc1)c1ccccc1 (centres unmarked) [TDH-240, 2-((4-fluorophenyl)amino)-2-oxo-1-phenylethyl 3-amino-6-(1-(1-(3-(4-(1-(2-(2,6-dioxopiperidin-3-yl)-1,3-dioxoisoindolin-5-yl)piperidine-4-carbonyl)piperazin-1-yl)propyl)piperidin-4-yl)-1H-pyrazol-4-yl)pyrazine-2-carboxylate] | 4.2 | 88.47 | – | 43.23 | 14.03 | – | – |
| Nc1ncc(-c2cnn(C3CCN(CCCN4CCN(C(=O)CCc5ccc6c(c5)CN(C5CCC(=O)NC5=O)C6=O)CC4)CC3)c2)nc1C(=O)O[C@@H](C(=O)Nc1ccc(F)cc1)c1ccccc1 (stereo partly drawn) [TDH-476, (R)-2-((4-fluorophenyl)amino)-2-oxo-1-phenylethyl 3-amino-6-(1-(1-(3-(4-(3-(2-(2,6-dioxopiperidin-3-yl)-1-oxoisoindolin-5-yl)propanoyl)piperazin-1-yl)propyl)piperidin-4-yl)-1H-pyrazol-4-yl)pyrazine-2-carboxylate] | 0.32 | 87.94 | 73.34 | – | – | 47.52 | 25.23 |
| Nc1ncc(-c2cnn(C3CCN(CCCCCCCCCCNC(=O)C4CCN(c5cccc6c5C(=O)N(C5CCC(=O)NC5=O)C6=O)CC4)CC3)c2)nc1C(=O)O[C@@H](C(=O)Nc1ccc(F)cc1)c1ccccc1 (stereo partly drawn) [TDH-156, (R)-2-((4-fluorophenyl)amino)-2-oxo-1-phenylethyl 3-amino-6-(1-(1-(10-(1-(2-(2,6-dioxopiperidin-3-yl)-1,3-dioxoisoindolin-4-yl)piperidine-4-carboxamido)decyl)piperidin-4-yl)-1H-pyrazol-4-yl)pyrazine-2-carboxylate] | 53 | 31.35 | 18.75 | 19.9 | 21.77 | – | – |

Further molecules by falling Kd (MLKL [1]), results first:

| Kd (MLKL [1]) [nM] | Degradation assay (Degradation %) 1 μM (MLKL [2]) [%] | Degradation assay (Degradation %) 10 μM (MLKL [2]) [%] | SMILES | Necroptosis inhibition assay (Rescue %) 1 μM (FADD−/− Jurkat cells) [%] | Necroptosis inhibition assay (Rescue %) 10 μM (FADD−/− Jurkat cells) [%] | Necroptosis inhibition assay (Rescue %) 1 μM (FADD−/− Jurkat cells; FADD−/− Jurkat cells) [%] | Necroptosis inhibition assay (Rescue %) 10 μM (FADD−/− Jurkat cells; FADD−/− Jurkat cells) [%] |
| --- | --- | --- | --- | --- | --- | --- | --- |
| 2.6 | 35.97 | 27.19 | Nc1ncc(-c2cnn(C3CCN(CC4CN(c5cccc6c5C(=O)N(C5CCC(=O)NC5=O)C6=O)CCO4)CC3)c2)nc1C(=O)OC(C(=O)Nc1ccc(F)cc1)c1ccccc1 (centres unmarked) [TDH-310, 2-((4-fluorophenyl)amino)-2-oxo-1-phenylethyl 3-amino-6-(1-(1-((4-(2-(2,6-dioxopiperidin-3-yl)-1,3-dioxoisoindolin-4-yl)morpholin-2-yl)methyl)piperidin-4-yl)-1H-pyrazol-4-yl)pyrazine-2-carboxylate] | 40.08 | 41.99 | – | – |
| 2.2 | 49.38 | 52.62 | Nc1ncc(-c2cnn(C3CCN(CCOCCOCCNC(=O)CNc4ccc5nnn(C6CCC(=O)NC6=O)c(=O)c5c4)CC3)c2)nc1C(=O)O[C@@H](C(=O)Nc1ccc(F)cc1)c1ccccc1 (stereo partly drawn) [TDH-174, (R)-2-((4-fluorophenyl)amino)-2-oxo-1-phenylethyl 3-amino-6-(1-(1-(2-(2-(2-(2-((3-(2,6-dioxopiperidin-3-yl)-4-oxo-3,4-dihydrobenzo[d][1,2,3]triazin-6-yl)amino)acetamido)ethoxy)ethoxy)ethyl)piperidin-4-yl)-1H-pyrazol-4-yl)pyrazine-2-carboxylate] | 16.47 | 42.59 | – | – |
| 0.97 | 62.01 | 51.12 | Nc1ncc(-c2cnn(C3CCN(CCC4CCN(C(=O)C5CCN(c6cccc7c6C(=O)N(C6CCC(=O)NC6=O)C7=O)CC5)CC4)CC3)c2)nc1C(=O)O[C@@H](C(=O)Nc1ccc(F)cc1)c1ccccc1 (stereo partly drawn) [TDH-196, (R)-2-((4-fluorophenyl)amino)-2-oxo-1-phenylethyl 3-amino-6-(1-(1-(2-(1-(1-(2-(2,6-dioxopiperidin-3-yl)-1,3-dioxoisoindolin-4-yl)piperidine-4-carbonyl)piperidin-4-yl)ethyl)piperidin-4-yl)-1H-pyrazol-4-yl)pyrazine-2-carboxylate] | 60.75 | 34 | – | – |
| 0.91 | 23.45 | 57.93 | Nc1ncc(-c2cnn(C3CCN(CCOCCOCCNC(=O)COc4cccc5c4C(=O)N(C4CCC(=O)NC4=O)C5=O)CC3)c2)nc1C(=O)O[C@@H](C(=O)Nc1ccc(F)cc1)c1ccccc1 (stereo partly drawn) [TDH-135, (R)-2-((4-fluorophenyl)amino)-2-oxo-1-phenylethyl 3-amino-6-(1-(1-(2-(2-(2-(2-((2-(2,6-dioxopiperidin-3-yl)-1,3-dioxoisoindolin-4-yl)oxy)acetamido)ethoxy)ethoxy)ethyl)piperidin-4-yl)-1H-pyrazol-4-yl)pyrazine-2-carboxylate] | 46.82 | 33.77 | – | – |
| 0.21 | 54.30 | 61.10 | Nc1ncc(-c2cnn(C3CCN(CCCN4CCN(C(=O)c5ccc6c(c5)CN(C5CCC(=O)NC5=O)C6=O)CC4)CC3)c2)nc1C(=O)O[C@@H](C(=O)Nc1ccc(F)cc1)c1ccccc1 (stereo partly drawn) [TDH-530, (R)-2-((4-fluorophenyl)amino)-2-oxo-1-phenylethyl 3-amino-6-(1-(1-(3-(4-(2-(2,6-dioxopiperidin-3-yl)-1-oxoisoindoline-5-carbonyl)piperazin-1-yl)propyl)piperidin-4-yl)-1H-pyrazol-4-yl)pyrazine-2-carboxylate] | – | – | 29.18 | 30.78 |
